Data as given in patent US8697366B2, “Anti-cancer drug screening method using RORα” (Seoul National University Industry Foundation, priority 2009, dated 2014).
“Also recorded” adds a separate entry of the source.

Tests used:
Format in all cases: cell-based
[1] = tested on: binding of RORα to β-catenin; experiment: Coimmunoprecipitation of RORα with β-catenin in HCT116 cells
Experimental: (§1) (A) The specificity of the antibody raised against phosphorylated RORαS35 peptide (SEQ ID NO:18) was assessed by dot blot analysis. (B) Treatment of TPA increased phophorylated RORα on S35 site as assessed by immunoprecipitation with anti-phospho-RORαS35 antibody. […] (D) Treatment of Go6976, a PKCα inhibitor, abolished TPA-dependent phosphorylation of RORα as assessed by immonoblotting with anti-phospho-RORαS35 antibody. (E) HCT116 cells were transfected with Flag-RORα WT, S35D, or S35A, and the cell extracts were immunoprecipitated with anti-Flag antibody followed by immunoblotting against anti-β-catenin antibody. (F) Coimmunoprecipitation assay of β-catenin with either RORαWT or S35A in HCT116 cells after treatment with TPA in the absence or presence of Go6976. (G) ChIP analysis on the cyclin D1 promoter after transfection with Flag-RORαWT, S35A, or S35D in HCT116 cells. (H) ChIP analysis on the cyclin D1 promoter in HCT116 cells after TPA treatment for indicated time. (I) ChIP assay was performed on the cyclin D1 promoter in the absence or presence of siRNA against PKCα with treatment of TPA for 90 min. (J) Real-time quantitative RT-PCR analysis of the cyclin D1 transcript in HCT116 cells in the presence of TPA for indicated time. (K) Knockdown effect of siRNA against RORα or PKCα was assessed in the expression of the cyclin D1 transcript in HCT116 cells.

[2] = tested on: cyclin D1 promoter; experiment: ChIP assay on the cyclin D1 promoter in HCT116 cells
Experimental: as §1
(B) Cyclin D1 transcript was measured after introducing siRNAs against RORα or PKCα in the presence of Wnt5a in HCT116 cells. (C) Real-time quantitative RTPCR analysis of the cyclin D1 transcript in HCT116 cells after introducing RORα, S35A, or S35D in the presence of Wnt5a. (D) […] on the cyclin D1 promoter with treatment of either TPA or Wnt5a in HCT116 cells. Occupancy of the cyclin D1 promoter by phosphorylated RORα, β-catenin, RNA polymerase II, H3K9me2, H3K4me2, CBP, pCAF, p300, or SMRT was indicated. (E) Transwell cell migration assay for RORα, RORαS35A, or RORαS35D-expressing HCT116 cells with treatment of Wnt5a. Values are represented as mean±s.d. for three independent experiments. (F) The anchorage-independent growth of HCT116 cells expressing RORα, RORαS35A, or RORαS35D in soft agar. Values are expressed as mean±SEM for two experiments in 6 place wells. Colonies were counted in 10 different fields and total colony number/well was calculated. Representative image is shown for each group.
The ChIP, two-step ChIP, and shRNA-coupled ChIP assays were conducted as previously described (Baek et al., 2002; Kim et al., 2005).

[3] = tested on: RORα; experiment: Phosphorylation of RORα in HCT116 cells (immunoprecipitation / immunoblot with anti-phospho-Ser or anti-phospho-RORαS35 antibody)
Experimental: (A) Schematic representation of RORα showing the location of the N-terminal domain (NTD), the DNA-binding domain (DBD), the hinge region, the ligand-binding domain (LBD), and the AF-2 domain. […] HEK293 cells were cotransfected with plasmids expressing each His-tagged RORα deletion construct and β-catenin. Whole cell extracts (left panel) and Ni^+-NTA-agarose pulldown materials (right panel) were analyzed by immunoblotting against anti-β-catenin IgG or anti-Xpress IgG. (C) Illustration of the structure of deletion fragments of RORα(SEQ ID NO:17). (D) Interaction of each RORα deletion construct with HisMax-β-catenin was assessed by Ni^+-NTA-agarose pulldown assay. […] The phosphorylated peptide samples were analyzed by LC-MS analysis. […] Immunoprecipitation assay was conducted with anti-Flag antibody, and the phosphorylated RORα was detected by immunoblot analysis with anti-phospho-Ser antibody. […] The reaction samples were subjected to 12% SDSPAGE, and phosphorylated RORα was detected by autoradiography. […] The fluorescence-conjugated secondary antibody was visualized using fluorescence microscopy, and nuclear staining with DAPI was shown.
(A) The specificity of the antibody raised against phosphorylated RORαS35 peptide (SEQ ID NO:18) was assessed by dot blot analysis. (B) Treatment of TPA increased phophorylated RORα on S35 site as assessed by immunoprecipitation with anti-phospho-RORαS35 antibody. […]

[4] = tested on: cyclin D1 transcript; experiment: Real-time quantitative RT-PCR of the cyclin D1 transcript in HCT116 cells
Experimental: The abundance of mRNA was detected by an ABI prism 7300 system with SYBR Green (molecular probes). Primer pairs were designed to amplify 90-150 bp mRNA specific fragments, and confirmed to be unique products by melting curve analysis. The PCR conditions were 95° C. (5 min) and 40 cycles of 95° C. (30 s), 57° C. (30 s), and 72° C. (30 s).
The quantity of mRNA was calculated using the ΔΔCt method and normalized by using primers to detect β-actin or HPRT. All reactions were performed in triplicates.

CCCCCCCCCCCCCC(=O)O[C@@H]1[C@@H](C)[C@@]2(O)[C@@H](C=C(CO)C[C@]3(O)C(=O)C(C)=C[C@@H]23)[C@@H]2C(C)(C)[C@]12OC(C)=O [TPA, 12-O-tetradecanoylphorbol-13acetate]
binding of RORα to β-catenin ([1]; TPA treatment): significantly increased
RNA polymerase II recruitment on the cyclin D1 promoter [2]: concomitant decrease; also recorded: decreased
methylation of histone H3K9 on the cyclin D1 promoter [2]: increased methylation
recruitment of CBP, p300, and pCAF coactivators to the cyclin D1 promoter [2]: significantly decreased
recruitment of β-catenin on the cyclin D1 promoter [2]: not altered
recruitment of phosphorylated RORα on the cyclin D1 promoter ([2]; anti-phospho-RORαS35 IgG): increased the recruitment
phosphorylation of RORα ([3]; HCT116 cells, treatment alone): increased phosphorylation
cyclin D1 transcript [4]: downregulation

Cn1c2ccccc2c2c3c(c4c5ccccc5n(CCC#N)c4c21)CNC3=O [Go6976]
TPA-induced increased binding of RORα to β-catenin ([1]; TPA plus Go6976): almost completely abolished
TPA-induced phosphorylation of RORα ([3]; in presence of TPA, anti-phospho-RORαS35 immunoblot): abolished
